Biological target: aspartate aminotransferase (AAT), K258A mutant (Escherichia coli, UniProt P00509, K246A, form not given)
Test: X-ray crystallography
Format: binding
Conditions: covalent external aldimine with L-aspartate; replaces PLP

Chain of aspartate aminotransferase (AAT), K258A mutant (P00509 whole entry K246A, form open): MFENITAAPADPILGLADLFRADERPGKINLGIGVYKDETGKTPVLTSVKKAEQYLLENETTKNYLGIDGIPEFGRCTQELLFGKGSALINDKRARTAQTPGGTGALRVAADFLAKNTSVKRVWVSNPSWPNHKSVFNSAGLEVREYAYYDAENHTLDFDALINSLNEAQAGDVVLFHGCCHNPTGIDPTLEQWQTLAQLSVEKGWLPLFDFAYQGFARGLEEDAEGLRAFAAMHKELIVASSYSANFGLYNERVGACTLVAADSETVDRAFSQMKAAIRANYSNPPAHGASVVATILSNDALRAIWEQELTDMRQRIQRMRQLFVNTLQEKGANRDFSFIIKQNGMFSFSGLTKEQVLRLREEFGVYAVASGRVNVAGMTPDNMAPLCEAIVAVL

In the case of `Cc1ccc(COP(=O)(O)O)c(C=O)c1O` [deazaPLP], the “X-ray crystallography (1.5 Å)” value is reported as “structure of the K258A/deazaPLP/L-aspartate external aldimine intermediate determined here by X-ray crystallography”.
